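Growth conditions: 96-well plates. Treatment: test compound, 48 hours, 5 concentrations. Analysis: linear interpolation between bracketing concentrations; unreached endpoints set to highest concentration. GI50: concentration for 50% inhibition of growth.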 Activity calls are given as the source filed them. No stated cut-off is given here; in the data, active = GI50 up to about 1.1 µM and inactive = higher.
How the values were obtained:
Test in all cases: DTP human tumour cell line panel, 48 h
[1] = test system: CCRF-CEM
[2] = test system: DU-145
[3] = test system: EKVX
[4] = test system: HCT-15
[5] = test system: Hs-578T
[6] = test system: K562
[7] = test system: KM12
[8] = test system: MDA-MB-231
[9] = test system: NCI-H226
[10] = test system: NCI-H23
[11] = test system: OVCAR-5
[12] = test system: SK-MEL-2
[13] = test system: SK-MEL-5
[14] = test system: SK-OV-3
[15] = test system: SN12C
[16] = test system: SNB-19
[17] = test system: T47D
[18] = test system: UACC-62
[19] = test system: CAKI-1

Measured: GI50

C=C1CCC2C(C)(CO)C(O)CCC2(C)C1C/C=C1\C(=O)OCC1O (configuration not stated)
14.6 µM: [4]
inactive: [1] 3.87 µM | [2] 38.8 µM | [3] 29.3 µM | [5] 36.6 µM | [6] 3.24 µM | [7] 14.1 µM | [8] 26.4 µM | [9] 39.8 µM | [10] 21.6 µM | [11] 17.1 µM | [12] 15.2 µM | [13] 14.1 µM | [14] 24 µM | [15] 15.2 µM | [16] 54.8 µM | [17] 24.7 µM | [18] 18.8 µM

COc1ccc(C[n+]2cccc(O)c2)cc1
inactive: [1] > 100 µM | [2] > 100 µM | [3] > 100 µM | [5] > 100 µM | [6] > 100 µM | [7] > 100 µM | [8] > 100 µM | [9] > 100 µM | [10] > 100 µM | [11] > 100 µM | [12] > 100 µM | [13] > 100 µM | [14] > 100 µM | [15] > 100 µM | [16] > 100 µM | [17] > 100 µM | [18] > 100 µM
> 10 µM: [4]

CN(/N=C(\C(=O)O)c1ccccc1)C1=NCCN1
> 100 µM: [4]
inactive: [19] > 100 µM | [1] > 100 µM | [2] > 100 µM | [3] 83.6 µM | [5] > 100 µM | [6] > 100 µM | [7] > 100 µM | [8] > 100 µM | [9] > 100 µM | [10] > 100 µM | [11] > 100 µM | [12] > 100 µM | [13] > 100 µM | [14] > 100 µM | [15] > 100 µM | [17] > 100 µM | [18] > 100 µM

COC(=O)c1c(O)ccc2c1c1c(n2CCc2ccccc2)C(=O)c2ccccc2C1=O
9.35 µM: [4]
inactive: [19] 13.1 µM | [1] 12.8 µM | [2] 14.4 µM | [3] 20.7 µM | [5] 13.3 µM | [6] 8.38 µM | [7] 12.2 µM | [8] 14.6 µM | [9] 14.6 µM | [10] 11.6 µM | [11] 20.2 µM | [12] 15.1 µM | [13] 12.5 µM | [14] 18.3 µM | [15] 12 µM | [16] 17.5 µM | [17] 5.47 µM

N#Cc1nc(/C=C/c2nc(C#N)c(N)o2)oc1N
> 10 µM: [4]
inactive: [19] > 10 µM | [1] > 10 µM | [2] > 10 µM | [3] > 10 µM | [5] > 10 µM | [6] > 10 µM | [7] > 10 µM | [8] > 10 µM | [9] > 10 µM | [10] > 10 µM | [13] > 10 µM | [14] > 10 µM | [15] > 10 µM | [16] > 10 µM | [17] > 10 µM | [18] > 10 µM

N#Cc1[nH]c(=O)n(-c2ccc([N+](=O)[O-])cc2)c1N
inactive: [1] > 10 µM | [2] > 10 µM | [3] > 10 µM | [5] > 10 µM | [6] > 10 µM | [8] > 10 µM | [9] > 10 µM | [10] > 10 µM | [11] > 10 µM | [12] > 10 µM | [13] > 10 µM | [14] > 10 µM | [15] > 10 µM | [16] > 10 µM | [17] > 10 µM | [18] > 10 µM
> 10 µM: [4]

Cc1cc(C)nc(NS(=O)(=O)c2ccc(NC(=O)c3cc([N+](=O)[O-])cc([N+](=O)[O-])c3)cc2)n1
> 100 µM: [4]
inactive: [19] > 100 µM | [1] 59.7 µM | [2] > 100 µM | [5] > 100 µM | [6] 60.7 µM | [7] 50.7 µM | [8] > 100 µM | [9] > 100 µM | [10] > 100 µM | [12] > 100 µM | [13] 95.3 µM | [14] > 100 µM | [15] 70.6 µM | [16] > 100 µM | [17] 49.4 µM | [18] 77.3 µM

CC(=O)c1c(C)n(C)c2c1nnc1ccccc12
inactive: [19] 35.7 µM | [1] 54.2 µM | [2] 80.5 µM | [3] 12.8 µM | [5] 32.6 µM | [7] 47.6 µM | [8] 59 µM | [9] 31.6 µM | [10] 37.5 µM | [12] > 100 µM | [13] 32 µM | [14] 32.8 µM | [15] 40.3 µM | [16] 55.5 µM | [17] > 100 µM | [18] 23.1 µM
42.1 µM: [4]

COc1ccc(S(=O)(=O)Nc2ccc(-c3csc(N4C(=O)/C(=C/c5ccccc5)N=C4c4ccccc4)n3)cc2)cc1Cl
inactive: [19] 62.8 µM | [1] 43.5 µM | [2] 27.8 µM | [5] 37.5 µM | [6] 34.3 µM | [7] 33.7 µM | [8] 16.1 µM | [9] 33.2 µM | [10] 23.2 µM | [11] 47.2 µM | [12] 25.9 µM | [13] 28.4 µM | [14] 79.3 µM | [15] 65.6 µM | [16] 44.2 µM | [17] 17.9 µM | [18] 16.8 µM
20.2 µM: [4]

COC(=O)C1Cc2c(OC)ccc(OC)c2CC(C(=O)OC)C1=O (configuration not stated)
> 100 µM: [4]
inactive: [19] > 100 µM | [1] > 100 µM | [2] > 100 µM | [3] > 100 µM | [5] > 100 µM | [6] > 100 µM | [7] > 100 µM | [8] > 100 µM | [9] > 100 µM | [10] 32.4 µM | [11] > 100 µM | [13] > 100 µM | [14] > 100 µM | [15] > 100 µM | [16] > 100 µM | [17] > 100 µM | [18] > 100 µM

C/C=C(/CBr)CCC(Br)C(C)(C)Cl.C/C=C(\CBr)CCC(Br)C(C)(C)Cl (configuration not stated)
> 10 µM: [4]
inactive: [19] > 10 µM | [1] > 10 µM | [2] > 10 µM | [3] > 10 µM | [5] > 10 µM | [6] > 10 µM | [7] > 10 µM | [8] > 10 µM | [9] > 10 µM | [10] > 10 µM | [11] > 10 µM | [12] > 10 µM | [13] > 10 µM | [14] > 10 µM | [15] > 10 µM | [16] > 10 µM | [17] > 10 µM

Cc1cnc2c(c1C)C(=O)c1ccccc1C2=O
inactive: [19] 30 µM | [1] 69.8 µM | [2] > 100 µM | [3] 37.8 µM | [5] 32.9 µM | [6] 39.4 µM | [7] 44.6 µM | [8] 26.5 µM | [9] 36.8 µM | [10] 44.7 µM | [11] > 100 µM | [12] 63.5 µM | [13] 11.8 µM | [14] 50.5 µM | [15] 28.6 µM | [16] 41.9 µM | [17] 70.5 µM
21.6 µM: [4]
